Each molecule was assayed against T1, Axl (Homo sapiens, UniProt P30530) (assay: Phospho-Akt In-Cell Western Assay (ability to inhibit Axl activity)). Settings: Hela cells, stimulated by Axl-antibody cross-linking, phospho-Akt chemiluminescence normalized to relative cell number.
T1 construct: endogenous in cells; host or cells: HeLa cells
T1 sequence (P30530 26-894): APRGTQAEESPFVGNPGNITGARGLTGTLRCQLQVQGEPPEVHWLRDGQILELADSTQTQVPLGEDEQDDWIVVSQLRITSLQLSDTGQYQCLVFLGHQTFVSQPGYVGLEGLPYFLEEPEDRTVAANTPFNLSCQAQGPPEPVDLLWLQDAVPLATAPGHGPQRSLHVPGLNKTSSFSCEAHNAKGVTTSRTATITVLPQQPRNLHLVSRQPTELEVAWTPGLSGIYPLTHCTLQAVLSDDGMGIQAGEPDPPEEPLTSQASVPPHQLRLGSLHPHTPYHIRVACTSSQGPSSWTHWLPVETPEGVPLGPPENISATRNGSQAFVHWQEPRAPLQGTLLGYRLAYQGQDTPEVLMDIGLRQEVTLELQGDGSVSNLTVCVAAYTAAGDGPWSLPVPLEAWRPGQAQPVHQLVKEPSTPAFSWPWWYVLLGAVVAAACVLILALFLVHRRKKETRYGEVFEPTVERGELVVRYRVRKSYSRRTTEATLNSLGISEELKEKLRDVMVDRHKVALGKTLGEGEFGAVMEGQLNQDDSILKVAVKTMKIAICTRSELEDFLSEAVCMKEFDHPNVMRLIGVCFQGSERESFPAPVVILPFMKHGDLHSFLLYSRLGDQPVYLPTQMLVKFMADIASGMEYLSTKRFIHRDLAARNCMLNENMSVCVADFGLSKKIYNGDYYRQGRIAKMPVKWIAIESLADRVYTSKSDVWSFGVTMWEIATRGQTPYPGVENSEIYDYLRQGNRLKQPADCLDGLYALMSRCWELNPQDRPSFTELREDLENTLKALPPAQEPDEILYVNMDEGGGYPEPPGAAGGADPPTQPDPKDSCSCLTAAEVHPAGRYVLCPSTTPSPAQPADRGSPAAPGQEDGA
Type: cell-based
Description: The compounds of the invention were tested in the following assay for their ability to inhibit Axl activity.
Phospho-Akt In-Cell Western Assay
• Cell culture plate: 96 well assay plate (Corning 3610), white, clear bottom, tissue-culture treated. • Cells: Hela cells. • Starvation medium: For Axl stimulation: 0.5% FCS (fetal calf serum) in DMEM, plus Axl/Fc (extracellular domain of AXL fused to immunoglobulin Fc region) (R&D, 154-AL) 500 ng/mL. • For EGF (epidermal growth factor) stimulation: 0.5% FCS in DMEM (Dulbecco's modified Eagles medium). • Poly-L-Lysine 0.01% solution (the working solution): 10 μg/ml, dilute In PBS (phosphate buffered saline). • Axl antibody cross-linking: • 1st: Mouse anti-Axl (R&D, MAB154). • 2nd: Biotin-SP-conjugated AffiniPure goat anti-mouse IgG (H+L) (Jackson ImmunoResearch #115-065-003). • Fixing buffer: 4% formaldehyde in PBS. • Wash buffer: 0.1% TritonX-100 in PBS. • Quenching buffer: 3% H2O2, 0.1% Azide in wash buffer, Azide and hydrogen peroxide (H2O2) are added fresh. • Blocking buffer: 5% BSA in TBST (tris buffered saline plus 0.1% Tween 20). • Primary antibody: Rabbit anti-human Phospho-Akt antibody (Cell Signaling 9271): 1×250 diluted in blocking buffer. • Secondary antibody: HRP (horse radish peroxidase)-conjugated Goat anti-Rabbit secondary, stock solution: Jackson ImmunoResearch (Goat anti-Rabbit HRP, #111-035-144) 1:1 diluted in glycerol, store at −20° C. The working solution: 1×2000 dilution of stock in blocking buffer. • Chemiluminescent working solution (Pierce, 37030): SuperSignal ELISA (enzyme linked immunosorbant assay) Pico Chemiluminescent substrate. • Crystal Violet solution: Stock: 2.5% Crystal violet in methanol, filtered and kept at ambient temperature. The working solution: dilute the stock 1:20 with PBS immediately before use. • 10% SDS: working solution: 5% SDS (sodium dodecylsulfate), diluted in PBS Methods: Day 1:
A 96 well TC (tissue culture treated) plate was coated with 10 μg/mL poly-L-Lysine at 37° C. for 30 min, washed twice with PBS, and air-dried for 5 minutes before cells were added. Hela cells were seeded at 10,000 cells/well and the cells were starved in 100 μL starvation medium containing Axl/Fc for 24 hrs.
The cells were pre-treated with test compounds by adding 100 μL of 2× test compound to the starvation medium on the cells. The cells were incubated at 37° C. for 1 hr before stimulation.
The cells were stimulated by Axl-antibody cross-linking as follows: A 5×1st/2nd Axl antibody mixture was made (37.5 μg/mL 1st/100 μg/mL 2nd) in starvation medium and nutated at 4° C. with thorough mixing for 1-2 hours for clustering. The resulting mix was warmed to 37° C. 50 μL of 5× Axl 1st/2nd of antibody cluster was added to the cells and the cells were incubated at 37° C. for 5 min.
After 5 minutes stimulation, the plate was flicked to remove medium and the plate was tapped onto paper towels. Formaldehyde (4.0% in PBS, 100 μL) was added to fix the cells and the cells were incubated at ambient temperature for 20 min without shaking.
The cells were washed with a plate washer buffer to remove the formaldehyde solution. The plate was flicked to removed excess wash buffer and tapped onto paper towels. Quenching buffer (100 μL) was added to each well and the cells were incubated at ambient temperature for 20 minutes without shaking.
The cells were washed with a plate washer buffer to remove the quenching buffer. Blocking buffer (100 μL) was added and the cells were incubated at ambient temperature for at least an hour with gentle shaking.
The cells were washed with a plate washer buffer and diluted primary antibody (50 μL) was added to each well (blocking buffer was added to the negative control wells instead). The plates were incubated overnight at 4° C. with gentle shaking.
The wash buffer was removed, diluted secondary antibody (100 μL) was added, and the cells were incubated at ambient temperature for 1 hour with gentle shaking. […]

IC50 [nM]	Molecule
< 1000	Nc1nc(Nc2ccc(N3CCC(N4CCCC4)CC3)c(F)c2)nn1-c1cc(-c2ccccc2)c2c(n1)C1CCC2C1 (centres unmarked) [Compound 43, 1-(5,8-methano-4-phenyl-5,6,7,8-tetrahydroquinoline-2-yl)-N^3-(3-fluoro-4-(4-(pyrrolidin-1-yl)piperidin-1-yl)phenyl)-1H-1,2,4-triazole-3,5-diamine]
< 1000	Nc1nc(Nc2ccc(N3CCC(N4CCCC4)CC3)nc2)nn1-c1cc(-c2ccccc2)c2c(n1)C1CCN2CC1 [Compound 29, 1-(1,4-ethano-8-phenyl-1,2,3,4-tetrahydro-1,5-naphthyridin-6-yl)-N^3-(2-(4-(pyrrolidin-1-yl)piperidin-1-yl)pyridine-5-yl)-1H-1,2,4-triazole-3,5-diamine]
< 1000	Nc1nc(Nc2ccc(N3CCN(C4CC5CCC4C5)CC3)c(F)c2)nn1-c1cc(-c2ccccc2)c2c(n1)C1CCN2CC1 (centres unmarked) [Compound 36, 1-(1,4-ethano-8-phenyl-1,2,3,4-tetrahydro-1,5-naphthyridin-6-yl)-N^3-(3-fluoro-4-(4-bicyclo[2.2.1]heptan-2-ylpiperazin-1-yl)phenyl)-1H-1,2,4-triazole-3,5-diamine]
> 20000	CN1CCC(c2ccc(Nc3nc(N)n(-c4ncc5c(n4)C4CCC5C4)n3)cc2)CC1 (centres unmarked) [Compound 12, N^3-(4-(1-methylpiperidin-4-yl)phenyl)-1-(5,8-methano-5,6,7,8-tetrahydroquinazolin-2-yl)-1H-1,2,4-triazole-3,5-diamine]
< 1000	CN1CCN(c2ccc(Nc3nc(N)n(-c4nnc(-c5ccccc5)c5c4C4CCC5C4)n3)cc2)CC1 (centres unmarked) [Compound 42, 1-(5,8-methano-1-phenyl-5,6,7,8-tetrahydrophthalazine-4-yl)-N^3-(4-(4-methylpiperazin-1-yl)phenyl)-1H-1,2,4-triazole-3,5-diamine]
< 1000	Nc1nc(Nc2ccc(N3CCC(N4CCCC4)CC3)c(F)c2)nn1-c1cc(-c2ccncc2)c2c(n1)C1CCN2CC1 [Compound 32, 1-(1,4-ethano-8-pyridin-4-yl-1,2,3,4-tetrahydro-1,5-naphthyridin-6-yl)-N^3-(3-fluoro-4-(4-(pyrrolidin-1-yl)piperidin-1-yl)phenyl)-1H-1,2,4-triazole-3,5-diamine]
< 1000	Cc1csc2c(-n3nc(Nc4cnc5c(c4)CN4CCC5CC4)nc3N)ncnc12 [Compound 27, 1-(7-methylthieno[3,2-d]pyrimidin-4-yl)-N^3-(6,9-ethano-6,7,8,9-tetrahydro-5H-pyrido[3,2-c]azepin-3-yl)-1H-1,2,4-triazole-3,5-diamine]
< 1000	Nc1nc(Nc2ccc(N3CCC(N4CCCC4)CC3)c(F)c2)nn1-c1nnc(-c2ccccc2)c2c1C1CCC2C1 (centres unmarked) [Compound 40, 1-(5,8-methano-1-phenyl-5,6,7,8-tetrahydrophthalazine-4-yl)-N^3-(3-fluoro-4-(4-(pyrrolidin-1-yl)piperidin-1-yl)phenyl)-1H-1,2,4-triazole-3,5-diamine]
< 1000	Nc1nc(Nc2ccc(N3CCC(N4CCCC4)CC3)c(F)c2)nn1-c1cc(-c2cccs2)c2c(n1)C1CCN2CC1 [Compound 30, 1-(1,4-ethano-8-thiophen-2-yl-1,2,3,4-tetrahydro-1,5-naphthyridin-6-yl)-N^3-(3-fluoro-4-(4-(pyrrolidin-1-yl)piperidin-1-yl)phenyl)-1H-1,2,4-triazole-3,5-diamine]
< 1000	CN1CCN(c2ccc(Nc3nc(N)n(-c4ccc5c(n4)[C@@H]4C[C@H](C5)C4(C)C)n3)cc2)CC1 [Compound 38, 1-(7,7-dimethyl-(6R,8R)6,8-methano-5,6,7,8-tetrahydroquinoline-2-yl)-N^3-(4-(4-methylpiperazin-1-yl)phenyl)-1H-1,2,4-triazole-3,5-diamine]
< 1000	Nc1nc(Nc2ccc(N3CCC(N4CCCC4)CC3)c(F)c2)nn1-c1cc(-c2ccccc2)c2c(n1)C1CCN2CC1 [Compound 25, 1-(1,4-ethano-8-phenyl-1,2,3,4-tetrahydro-1,5-naphthyridin-6-yl)-N^3-(3-fluoro-4-(4-(pyrrolidin-1-yl)piperidin-1-yl)phenyl)-1H-1,2,4-triazole-3,5-diamine]
< 1000	Nc1nc(Nc2ccc3c(c2)CCC(N2CCCC2)CC3)nn1-c1cc(-c2ccccc2)c2c(n1)C1CCC2C1 (centres unmarked) [Compound 49, 1-(5,8-methano-4-phenyl-5,6,7,8-tetrahydroquinoline-2-yl)-N^3-(7-pyrrolidin-1-yl-6,7,8,9-tetrahydro-5H-benzo[7]annulene-3-yl)-1H-1,2,4-triazole-3,5-diamine]
< 1000	CN1CCN(c2ccc(Nc3nc(N)n(-c4cc(-c5ccccc5)c5c(n4)C4CCC5C4)n3)cc2)CC1 (centres unmarked) [Compound 45, 1-(5,8-methano-4-phenyl-5,6,7,8-tetrahydroquinoline-2-yl)-N^3-(4-(4-methylpiperazin-1-yl)phenyl)-1H-1,2,4-triazole-3,5-diamine]
< 1000	Nc1nc(Nc2ccc3c(c2)CCC(NC2CCCC2)CC3)nn1-c1cc(-c2ccccc2)c2c(n1)C1CCN2CC1 (centres unmarked) [Compound 70, 1-(1,4-ethano-8-phenyl-1,2,3,4-tetrahydro-1,5-naphthyridin-6-yl)-N^3-(7-cyclopentylamino-6,7,8,9-tetrahydro-5H-benzo[7]annulene-3-yl)-1H-1,2,4-triazole-3,5-diamine]

Molecule	IC50 [nM]
CN1CCN(c2ccc(Nc3nc(N)n(-c4cc(-c5ccccc5)c5c(n4)C4CCN5CC4)n3)cc2)CC1 [Compound 35, 1-(1,4-ethano-8-phenyl-1,2,3,4-tetrahydro-1,5-naphthyridin-6-yl)-N^3-(4-(4-methylpiperazin-1-yl)phenyl)-1H-1,2,4-triazole-3,5-diamine]	< 1000
1-(5,8-methano-5,6,7,8-tetrahydroquinazolin-2-yl)-N^3-(4-(morpholin-1-yl)phenyl)-1H-1,2,4-triazole-3,5-diamine [Compound 5]	1000 to 10000
Cc1csc2c(-n3nc(Nc4cnc5c(c4)C4CCC(C5)N4C)nc3N)ncnc12 (centres unmarked) [Compound 26, 1-(7-methylthieno[3,2-d]pyrimidin-4-yl)-N^3-(5,7-ethano-5,6,7,8-tetrahydro-6-methyl-1,6-naphthyridin-3-yl)-1H-1,2,4-triazole-3,5-diamine]	< 1000
